# Data reported in ChEMBL document CHEMBL1156062, “Synthesis, SAR, and X-ray structure of tricyclic compounds as potent FBPase inhibitors” (Bioorg Med Chem Lett, 2009).
# Target: T1, Fructose-1,6-bisphosphatase 1 (Homo sapiens, UniProt P09467)
# T1 sequence (P09467 whole entry): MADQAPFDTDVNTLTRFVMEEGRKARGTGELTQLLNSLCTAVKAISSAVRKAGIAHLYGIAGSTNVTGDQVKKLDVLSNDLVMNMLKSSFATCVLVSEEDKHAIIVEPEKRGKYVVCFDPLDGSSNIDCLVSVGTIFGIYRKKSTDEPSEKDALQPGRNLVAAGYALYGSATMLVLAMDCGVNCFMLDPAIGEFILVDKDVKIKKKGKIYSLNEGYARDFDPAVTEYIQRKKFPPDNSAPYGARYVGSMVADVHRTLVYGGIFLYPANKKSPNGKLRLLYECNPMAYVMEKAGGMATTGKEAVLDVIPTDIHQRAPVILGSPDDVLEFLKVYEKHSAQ
# Assay: Inhibition of human liver FBPase
row,SMILES,IC50 [µM]
1,Nc1nc2c(s1)CCc1cc(OCP(=O)(O)O)ccc1-2,16.4
2,Nc1nc2c(s1)CCc1ccc(C(F)(F)P(=O)(O)O)cc1-2,0.047
3,Nc1nc2c(s1)CCCc1ccc(P(=O)(O)O)cc1-2,0.169
4,Nc1nc2c(s1)CCc1cccc(OCP(=O)(O)O)c1-2,21.5
5,Nc1nc2c(s1)CCc1ccc(OCP(=O)(O)O)cc1-2,19.1
6,Nc1nc2c(s1)Cc1cccc(P(=O)(O)O)c1-2,28.4
7,Nc1nc2c(s1)Cc1ccc(P(=O)(O)O)cc1-2,18.7
8,Nc1nc2c(s1)Cc1cc(OP(=O)(O)O)ccc1-2,146
9,Nc1nc2c(s1)CCc1cccc(P(=O)(O)O)c1-2,354
10,Nc1nc2c(s1)CCc1cc(P(=O)(O)O)ccc1-2,354
11,Nc1nc2c(s1)Cc1ccc(OP(=O)(O)O)cc1-2,307
12,Nc1nc2c(s1)CCc1ccc(CP(=O)(O)O)cc1-2,0.84
13,Nc1nc2c(s1)Cc1ccc(OCP(=O)(O)O)cc1-2,112
14,Nc1nc2c(s1)Cc1cc(P(=O)(O)O)ccc1-2,91.9
15,Nc1nc2c(s1)CCc1cc(OP(=O)(O)O)ccc1-2,112
16,Nc1nc2c(s1)CCCc1ccc(OP(=O)(O)O)cc1-2,0.022
17,Nc1nc2c(s1)Cc1cc(OCP(=O)(O)O)ccc1-2,112
18,Nc1nc2c(s1)CCc1ccc(P(=O)(O)O)cc1-2,9.32
19,Nc1nc2c(s1)Cc1cccc(OP(=O)(O)O)c1-2,0.07
20,Nc1nc2c(s1)CCCc1ccc(OCP(=O)(O)O)cc1-2,41.7
21,Nc1nc2c(s1)CCc1cccc(OP(=O)(O)O)c1-2,335
